According to publication PMC9292215 (Clinical Pharmacology and Therapeutics, 2021):

Assay: Plasma pharmacokinetics of BIA 10-2474 and metabolites
Assay type: in vivo, human
Details: for AUC(0-t): AUC0–t; for clearance: CL
[1] = both, human, plasma, oral, 0.25 mg, single dose 0.25 mg
[2] = both, human, plasma, oral, 1.25 mg, single dose 1.25 mg
[3] = both, human, plasma, oral, 2.5 mg, single dose 2.5 mg
[4] = both, human, plasma, oral, 5 mg, single dose 5 mg
[5] = both, human, plasma, oral, 40 mg, single dose 40 mg
[6] = both, human, plasma, oral, 100 mg, single dose 100 mg

Q: Which results are given for `CN(C(=O)n1cnc(-c2ccc[n+]([O-])c2)c1)C1CCCCC1` [BIA 10-2474, 3-(1-(cyclohexyl(methyl)carbamoyl)-1H-imidazol-4-yl)pyridine 1-oxide]?
A: V/F (2.5 mg once daily, Day 1): 56.1 (18.7) L; Racc (2.5 mg once daily, Day 10): 1.15; V/F (2.5 mg once daily, Day 10): 57.0 (26.0) L; V/F (5 mg once daily, Day 1): 63.2 (20.4) L; Racc (5 mg once daily, Day 10): 1.31; V/F (5 mg once daily, Day 10): 65.3 (17.4) L; V/F (10 mg once daily, Day 1): 69.0 (22.8) L; Racc (10 mg once daily, Day 10): 1.59; V/F (10 mg once daily, Day 10): 61.4 (17.9) L; V/F (20 mg once daily, Day 1): 66.3 (7.34) L; Racc (20 mg once daily, Day 10): 1.57; V/F (20 mg once daily, Day 10): 64.1 (15.4) L; V/F (50 mg once daily, Day 1): 67.9 (9.78) L; accumulation ratio, based on AUC0–24h (Day 10): < 2; Overall fold increase in AUC0–τ (MAD Day 1): 19.6; Overall fold increase in Cmax (MAD Day 1): 14.5; Fold increase in AUC0–τ (MAD Day 1, 2.5 to 5 mg): 1.8; Fold increase in Cmax (MAD Day 1, 2.5 to 5 mg): 1.7; Fold increase in AUC0–τ (MAD Day 1, 5 to 10 mg): 2.0; Fold increase in Cmax (MAD Day 1, 5 to 10 mg): 1.9; Fold increase in AUC0–τ (MAD Day 1, 10 to 20 mg): 2.1; Fold increase in Cmax (MAD Day 1, 10 to 20 mg): 2.0; Fold increase in AUC0–τ (MAD Day 1, 20 to 50 mg): 2.6; Fold increase in Cmax (MAD Day 1, 20 to 50 mg): 2.3; Overall fold increase in AUC0–τ (MAD Day 10): 8.84; Overall fold increase in Cmax (MAD Day 10): 7.53; Fold increase in AUC0–τ (MAD Day 10, 2.5 to 5 mg): 1.7; Fold increase in Cmax (MAD Day 10, 2.5 to 5 mg): 1.6; Fold increase in AUC0–τ (MAD Day 10, 5 to 10 mg): 2.4; Fold increase in Cmax (MAD Day 10, 5 to 10 mg): 2.2; Fold increase in AUC0–τ (MAD Day 10, 10 to 20 mg): 2.1; Fold increase in Cmax (MAD Day 10, 10 to 20 mg): 2.1; Fold increase in Cmax (SAD, 1.25 to 2.5 mg): 1.9; Fold increase in AUC0–t (SAD, 2.5 to 5 mg): 2.4; Fold increase in Cmax (SAD, 2.5 to 5 mg): 2.7; Fold increase in AUC0–t (SAD, 5 to 10 mg): 2.1; Fold increase in Cmax (SAD, 5 to 10 mg): 1.7; Fold increase in AUC0–t (SAD, 10 to 20 mg): 2.8; Fold increase in Cmax (SAD, 10 to 20 mg): 2.1; Fold increase in AUC0–t (SAD, 20 to 40 mg): 2.2; Fold increase in Cmax (SAD, 20 to 40 mg): 2.6; Fold increase in AUC0–t (SAD, 40 to 100 mg): 2.6; Fold increase in Cmax (SAD, 40 to 100 mg): 2.2; Overall fold increase in AUC0–t (SAD, over the dosage range): 19.6; Cmax [1]: 3.1 ng/mL; Tmax [1]: 2 h; AUC(0-inf) (both, human, plasma, oral, 1.25 mg): 142 ng·h/mL; AUC(0-t) [2]: 98 ng·h/mL; clearance [2]: 155 mL/min; Cmax [2]: 16.2 ng/mL; half-life (both, human, plasma, oral, 1.25 mg, t1/2, single dose 1.25 mg): 6.54 h; Tmax [2]: 1.5 h; AUC(0-inf) (both, human, plasma, oral, 2.5 mg): 338 ng·h/mL; AUC(0-t) [3]: 289 ng·h/mL; clearance [3]: 131 mL/min; Cmax [3]: 31.2 ng/mL; half-life (both, human, plasma, oral, 2.5 mg, t1/2, single dose 2.5 mg): 7.04 h; Tmax [3]: 1.5 h; AUC(0-t) [4]: 693 ng·h/mL; Cmax [4]: 85.4 ng/mL; Tmax [4]: 2 h; clearance [5]: 116 mL/min; half-life (both, human, plasma, oral, 40 mg, t1/2, single dose 40 mg): 7.84 h; Tmax [5]: 2 h; AUC(0-inf) (both, human, plasma, oral, 100 mg): 23200 ng·h/mL; AUC(0-t) [6]: 23000 ng·h/mL; clearance [6]: 75.2 mL/min; Cmax [6]: 1770 ng/mL; half-life (both, human, plasma, oral, 100 mg, t1/2, single dose 100 mg): 9.13 h; Tmax [6]: 2 h; half-life (both, human, plasma, oral, drug half-life in plasma): 6 to 10 h; half-life (both, human, plasma, oral, mean terminal elimination half-life, Day 10): 8 to 10 h; concentration at 10 day (human, plasma, oral, 2.5 mg): 6.24 ng/mL; AUC(0-t) (human, plasma, oral, 2.5 mg, 2.5 mg once daily, Day 1): 384 ng·h/mL; AUC (human, plasma, oral, 2.5 mg, AUC0–τ, 2.5 mg once daily, Day 1): 397 ng·h/mL
